Source: US20230074252A1, “DOSAGES AND METHODS FOR TREATING PULMONARY ARTERIAL HYPERTENSION WITH RODATRISTAT” (Altavant Sciences GmbH, priority 2020, published 2023)
“Also recorded” adds a separate entry of the source. Read-outs that look alike come from different tables or passages of the source.

Columns and labels:
Type in all cases: in vitro ADME
OATP1B3 [1] = target: T1, OATP1B3 (Homo sapiens, UniProt Q9NPD5); experiment: Transporter inhibition, HEK293 cells, estradiol-17β-glucuronide probe; details: for Calculated Values, R-value, OATP1B3 / Potential for interaction? (transporter inhibitor), OATP1B3: predicted @ 600 mg BID; for IC50: read-out: In vitro IC50, OATP1B3
T1 construct: expressed in transfected cells; host or cells: HEK293
T1 sequence (Q9NPD5 1-702): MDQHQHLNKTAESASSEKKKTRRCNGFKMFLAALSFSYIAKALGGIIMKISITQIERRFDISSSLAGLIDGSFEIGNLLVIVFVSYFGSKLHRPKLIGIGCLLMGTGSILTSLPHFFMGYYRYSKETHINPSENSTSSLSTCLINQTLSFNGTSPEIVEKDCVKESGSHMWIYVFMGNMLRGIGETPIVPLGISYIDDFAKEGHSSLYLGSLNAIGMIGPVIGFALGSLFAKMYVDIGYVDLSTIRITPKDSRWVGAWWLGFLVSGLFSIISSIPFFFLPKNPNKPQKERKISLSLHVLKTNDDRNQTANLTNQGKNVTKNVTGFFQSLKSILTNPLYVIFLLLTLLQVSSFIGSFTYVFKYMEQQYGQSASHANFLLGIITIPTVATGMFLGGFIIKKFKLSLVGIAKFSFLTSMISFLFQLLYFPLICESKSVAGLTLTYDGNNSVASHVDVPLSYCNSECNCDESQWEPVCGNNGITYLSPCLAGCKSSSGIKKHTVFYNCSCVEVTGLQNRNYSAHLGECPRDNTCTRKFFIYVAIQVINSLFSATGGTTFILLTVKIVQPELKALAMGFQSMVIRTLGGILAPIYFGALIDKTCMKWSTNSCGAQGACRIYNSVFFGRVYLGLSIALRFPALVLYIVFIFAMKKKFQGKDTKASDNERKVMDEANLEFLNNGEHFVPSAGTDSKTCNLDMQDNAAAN
Procedure: (§1) The competitive inhibition of specific transporters was investigated for RVT-1201 and KAR5417 in transporter-expressing in vitro systems (XT158039). Inhibition of P-gp was evaluated using a Caco-2 cell line with digoxin as probe substrate. Inhibition of OATP1B1 and OATP1B3 was evaluated using a HEK293 cell line expressing these transporters with estradiol-17β-glucuronide as probe substrate. In addition, inhibition of other transporters was also investigated (BCRP, OAT1, OAT3, OCT2, MATE1, MATE2-K). The IC50 estimates for P-gp (RVT-1201) and OATP1B1/3 (RVT-1201 and KAR5417) supported further evaluation of inhibition DDI potential using the PBPK model. For each IC50 estimate, substrate concentration and Km were used to estimate RVT-1201 and KAR5417 Ki with Equation 1 (Cheng and Prusoff, 1973).

OATP1B1 = target: T2, OATP1B1 (Homo sapiens, UniProt Q9Y6L6); experiment: as above; details: for Calculated Values, R-value, OATP1B1 / Potential for interaction? (transporter inhibitor), OATP1B1: predicted @ 600 mg BID; for IC50: read-out: In vitro IC50, OATP1B1
T2 construct: expressed in transfected cells; host or cells: HEK293
T2 sequence (Q9Y6L6 1-691): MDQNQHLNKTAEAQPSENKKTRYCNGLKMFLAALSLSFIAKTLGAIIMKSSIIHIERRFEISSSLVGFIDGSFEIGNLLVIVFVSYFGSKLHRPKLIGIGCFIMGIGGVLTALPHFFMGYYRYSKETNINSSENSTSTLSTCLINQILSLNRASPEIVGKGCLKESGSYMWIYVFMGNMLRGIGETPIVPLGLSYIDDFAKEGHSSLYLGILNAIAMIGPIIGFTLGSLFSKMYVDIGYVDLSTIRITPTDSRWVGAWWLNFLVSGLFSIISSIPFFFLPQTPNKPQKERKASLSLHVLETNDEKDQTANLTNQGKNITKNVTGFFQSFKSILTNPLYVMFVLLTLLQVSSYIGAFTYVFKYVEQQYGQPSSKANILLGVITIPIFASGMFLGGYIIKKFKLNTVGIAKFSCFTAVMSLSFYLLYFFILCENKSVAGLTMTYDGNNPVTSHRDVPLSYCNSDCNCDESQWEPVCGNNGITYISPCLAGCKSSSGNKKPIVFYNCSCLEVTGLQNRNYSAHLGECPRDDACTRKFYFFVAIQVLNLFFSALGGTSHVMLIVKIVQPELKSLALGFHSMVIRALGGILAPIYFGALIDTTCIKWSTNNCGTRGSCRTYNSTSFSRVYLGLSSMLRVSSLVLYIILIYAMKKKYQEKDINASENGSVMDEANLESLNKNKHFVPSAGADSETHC
Procedure: as §1

MRP2 = MRP2 (Homo sapiens, UniProt Q92887); experiment: In vitro transporter substrate assessment
Source text: (§2) Consequently, the elimination of rodatristat into bile may be impacted by co-administration with agents that are BCRP inhibitors.

OATP1B3 [2] = target: T1, OATP1B3; experiment: In vitro transporter substrate assessment
Source text: as §2

BCRP [3] = target: T3, BCRP (Homo sapiens, UniProt Q9UNQ0); experiment: In vitro transporter substrate assessment
T3 sequence (Q9UNQ0 1-655): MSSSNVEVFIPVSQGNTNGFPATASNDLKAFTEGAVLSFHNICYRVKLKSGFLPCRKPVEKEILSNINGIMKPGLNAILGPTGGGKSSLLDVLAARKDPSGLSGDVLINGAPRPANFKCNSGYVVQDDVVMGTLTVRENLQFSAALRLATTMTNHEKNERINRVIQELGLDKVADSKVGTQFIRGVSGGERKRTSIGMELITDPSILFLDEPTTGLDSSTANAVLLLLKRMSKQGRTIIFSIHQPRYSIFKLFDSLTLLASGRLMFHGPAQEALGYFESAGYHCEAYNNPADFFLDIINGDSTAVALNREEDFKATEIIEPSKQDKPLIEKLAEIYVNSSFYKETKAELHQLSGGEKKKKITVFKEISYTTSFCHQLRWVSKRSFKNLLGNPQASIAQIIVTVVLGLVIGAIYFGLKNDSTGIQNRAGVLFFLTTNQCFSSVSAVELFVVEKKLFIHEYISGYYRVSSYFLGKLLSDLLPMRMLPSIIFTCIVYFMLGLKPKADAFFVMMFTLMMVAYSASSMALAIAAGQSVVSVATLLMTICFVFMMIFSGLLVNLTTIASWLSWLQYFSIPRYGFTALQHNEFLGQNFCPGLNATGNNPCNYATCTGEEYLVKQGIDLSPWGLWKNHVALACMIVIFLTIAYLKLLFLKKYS
Source text: as §2

P-gp = target: T4, P-gp (Homo sapiens, UniProt P08183); experiment: In vitro transporter substrate assessment
T4 construct: endogenous in cells; host or cells: Caco-2
Source text: as §2

BCRP [4] = target: T3, BCRP; experiment: Transporter inhibition, transporter-expressing in vitro system; details: for Potential for interaction? (transporter inhibitor), BCRP: predicted @ 600 mg BID
Procedure: as §1

Chain of MRP2 (Q92887 whole entry): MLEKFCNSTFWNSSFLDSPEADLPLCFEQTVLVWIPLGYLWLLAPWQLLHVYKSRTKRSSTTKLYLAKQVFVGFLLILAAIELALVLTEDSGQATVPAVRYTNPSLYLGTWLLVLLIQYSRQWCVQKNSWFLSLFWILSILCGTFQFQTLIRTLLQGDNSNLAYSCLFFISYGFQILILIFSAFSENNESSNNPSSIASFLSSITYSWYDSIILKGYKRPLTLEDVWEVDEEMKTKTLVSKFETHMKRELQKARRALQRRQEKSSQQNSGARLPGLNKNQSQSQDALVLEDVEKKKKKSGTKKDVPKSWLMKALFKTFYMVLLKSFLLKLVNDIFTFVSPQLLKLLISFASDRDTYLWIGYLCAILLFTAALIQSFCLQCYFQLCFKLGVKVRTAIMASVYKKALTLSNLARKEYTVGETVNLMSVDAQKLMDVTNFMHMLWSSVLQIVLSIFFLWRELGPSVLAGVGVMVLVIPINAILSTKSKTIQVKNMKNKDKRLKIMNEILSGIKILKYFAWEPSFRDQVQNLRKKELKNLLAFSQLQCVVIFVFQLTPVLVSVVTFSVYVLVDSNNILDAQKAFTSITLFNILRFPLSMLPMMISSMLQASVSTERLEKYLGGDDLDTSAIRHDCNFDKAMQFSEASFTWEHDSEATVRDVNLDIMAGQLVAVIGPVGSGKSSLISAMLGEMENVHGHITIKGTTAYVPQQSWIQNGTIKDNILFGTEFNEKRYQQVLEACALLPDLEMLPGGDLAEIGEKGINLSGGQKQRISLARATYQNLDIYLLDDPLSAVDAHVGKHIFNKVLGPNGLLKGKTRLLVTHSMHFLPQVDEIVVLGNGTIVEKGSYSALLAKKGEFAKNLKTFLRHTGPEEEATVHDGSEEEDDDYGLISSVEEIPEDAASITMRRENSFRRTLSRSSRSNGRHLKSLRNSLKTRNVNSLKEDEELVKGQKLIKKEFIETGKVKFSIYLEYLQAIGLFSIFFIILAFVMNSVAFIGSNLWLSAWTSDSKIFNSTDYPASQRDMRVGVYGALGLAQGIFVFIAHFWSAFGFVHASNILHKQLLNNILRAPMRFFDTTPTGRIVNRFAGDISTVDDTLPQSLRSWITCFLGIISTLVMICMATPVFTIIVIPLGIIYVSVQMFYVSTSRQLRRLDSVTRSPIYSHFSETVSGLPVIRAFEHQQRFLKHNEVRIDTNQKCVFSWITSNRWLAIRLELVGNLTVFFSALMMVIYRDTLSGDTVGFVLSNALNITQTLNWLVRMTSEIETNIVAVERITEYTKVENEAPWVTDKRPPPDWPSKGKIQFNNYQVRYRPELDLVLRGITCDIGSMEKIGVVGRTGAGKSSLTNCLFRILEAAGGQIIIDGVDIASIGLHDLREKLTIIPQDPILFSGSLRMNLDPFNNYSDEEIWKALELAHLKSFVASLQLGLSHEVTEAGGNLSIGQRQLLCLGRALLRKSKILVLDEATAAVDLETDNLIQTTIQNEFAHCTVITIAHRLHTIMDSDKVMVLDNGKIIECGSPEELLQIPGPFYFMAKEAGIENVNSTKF
T4 sequence (P08183 whole entry): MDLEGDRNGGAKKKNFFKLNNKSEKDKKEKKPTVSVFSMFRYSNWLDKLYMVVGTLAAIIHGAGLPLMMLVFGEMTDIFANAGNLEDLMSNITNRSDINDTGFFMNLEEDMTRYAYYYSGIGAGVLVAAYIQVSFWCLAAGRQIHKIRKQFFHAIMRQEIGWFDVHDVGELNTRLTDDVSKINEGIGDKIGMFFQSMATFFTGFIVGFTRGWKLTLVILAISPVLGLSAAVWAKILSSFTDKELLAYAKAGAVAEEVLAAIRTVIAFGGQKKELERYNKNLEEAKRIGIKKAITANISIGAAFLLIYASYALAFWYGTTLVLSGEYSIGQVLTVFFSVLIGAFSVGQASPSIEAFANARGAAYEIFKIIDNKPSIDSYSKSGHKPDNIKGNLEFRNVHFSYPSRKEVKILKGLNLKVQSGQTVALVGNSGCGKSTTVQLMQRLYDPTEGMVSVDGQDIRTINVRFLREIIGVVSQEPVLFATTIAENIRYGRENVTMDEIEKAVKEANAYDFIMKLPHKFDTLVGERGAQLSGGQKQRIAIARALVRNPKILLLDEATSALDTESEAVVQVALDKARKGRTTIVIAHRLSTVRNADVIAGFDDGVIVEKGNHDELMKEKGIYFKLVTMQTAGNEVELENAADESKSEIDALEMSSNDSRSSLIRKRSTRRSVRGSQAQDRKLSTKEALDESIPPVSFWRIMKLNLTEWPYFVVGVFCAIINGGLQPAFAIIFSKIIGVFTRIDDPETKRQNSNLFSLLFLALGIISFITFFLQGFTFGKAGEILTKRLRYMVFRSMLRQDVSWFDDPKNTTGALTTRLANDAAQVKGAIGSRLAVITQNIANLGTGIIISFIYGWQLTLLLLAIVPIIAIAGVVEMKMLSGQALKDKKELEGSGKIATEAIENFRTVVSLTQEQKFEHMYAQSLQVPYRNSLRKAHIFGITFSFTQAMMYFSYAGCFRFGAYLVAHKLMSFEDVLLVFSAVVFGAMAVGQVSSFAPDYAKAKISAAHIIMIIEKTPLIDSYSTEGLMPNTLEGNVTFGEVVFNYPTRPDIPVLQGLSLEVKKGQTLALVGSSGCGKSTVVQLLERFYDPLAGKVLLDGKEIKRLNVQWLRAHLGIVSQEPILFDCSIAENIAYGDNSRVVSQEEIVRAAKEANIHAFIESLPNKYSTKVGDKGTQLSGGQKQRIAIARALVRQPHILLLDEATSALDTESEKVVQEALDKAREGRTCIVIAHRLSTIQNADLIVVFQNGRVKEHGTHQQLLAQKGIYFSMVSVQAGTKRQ

SMILES	Calculated Values, R-value, OATP1B3 (OATP1B3 [1])	Potential for interaction? (transporter inhibitor), OATP1B3 (OATP1B3 [1])	Calculated Values, R-value, OATP1B3 (OATP1B3 [1]; listed as rodatristat ethyl)	IC50 (OATP1B3 [1])	Calculated Values, R-value, OATP1B1 (OATP1B1)	Potential for interaction? (transporter inhibitor), OATP1B1 (OATP1B1)	IC50 (OATP1B1)	In vitro substrate? MRP2 (MRP2)	In vitro substrate? OATP1B3 (OATP1B3 [2])	In vitro substrate? BCRP (BCRP [3])	In vitro substrate? P-gp (P-gp)	Inhibition of BCRP (in words) (BCRP [4])	Inhibition of BCRP (in words) (BCRP [4]; listed as rodatristat ethyl)	Potential for interaction? (transporter inhibitor), BCRP (BCRP [4])	Accumulation by OATP1B3 uptake transporter (OATP1B3 [2]; 3 μM)	Inhibition of BCRP (in words) (BCRP [4]; listed as rodatristat)
CCOC(=O)[C@@H]1CC2(CCN(c3cc(O[C@H](c4ccc(Cl)cc4-c4ccccc4)C(F)(F)F)nc(N)n3)CC2)CN1 [Rodatristat ethyl, (S)-ethyl 8-(2-amino-6-((R)-1-(5-chloro-[1,1′-biphenyl]-2-yl)-2,2,2-trifluoroethoxy)pyrimidin-4-yl)-2,8-diazaspiro[4.5]decane-3-carboxylate]	<1.1	No	< 1.1	12.3 µM	<1.1	No	25.4 µM	not a substrate; also recorded: not likely	not a substrate and No	not a substrate; also recorded: not likely	not a substrate; also recorded: not likely	not an inhibitor	Neither rodatristat ethyl nor rodatristat inhibited	No	–	–
Nc1nc(O[C@H](c2ccc(Cl)cc2-c2ccccc2)C(F)(F)F)cc(N2CCC3(CC2)CN[C@H](C(=O)O)C3)n1 [Rodatristat, (S)-8-(2-amino-6-((R)-1-(5-chloro-[1,1′-biphenyl]-2-yl)-2,2,2-trifluoroeth-oxy)pyrimidin-4-yl)-2,8-diazaspiro[4.5]decane-3-carboxylic acid]	1.26	Yes	–	1.93 µM	<1.1	No	5.74 µM	not an in vitro substrate; also recorded: Not likely	is an in vitro substrate and Yes	potential substrate	potential substrate	not an inhibitor	–	No	9.28 fold	Neither rodatristat ethyl nor rodatristat inhibited
